Test results published in patent US5466688A, “Pyrido[3,4-B]indole derivatives as serotonergic agents” (American Home Products Corporation, priority 1994, dated 1995).

Experiments:
[1] = target: T1, 5-HT1A serotonin receptor (Rattus norvegicus, UniProt P19327); assay: 5-HT1A receptor binding: displacement of [3H] 8-OHDPAT; conditions: procedure of Hall et al.
T1 construct: following the procedure of Hall et al., J. Neurochem; 44 1685 (1985); from tissue
T1 sequence (P19327 1-422): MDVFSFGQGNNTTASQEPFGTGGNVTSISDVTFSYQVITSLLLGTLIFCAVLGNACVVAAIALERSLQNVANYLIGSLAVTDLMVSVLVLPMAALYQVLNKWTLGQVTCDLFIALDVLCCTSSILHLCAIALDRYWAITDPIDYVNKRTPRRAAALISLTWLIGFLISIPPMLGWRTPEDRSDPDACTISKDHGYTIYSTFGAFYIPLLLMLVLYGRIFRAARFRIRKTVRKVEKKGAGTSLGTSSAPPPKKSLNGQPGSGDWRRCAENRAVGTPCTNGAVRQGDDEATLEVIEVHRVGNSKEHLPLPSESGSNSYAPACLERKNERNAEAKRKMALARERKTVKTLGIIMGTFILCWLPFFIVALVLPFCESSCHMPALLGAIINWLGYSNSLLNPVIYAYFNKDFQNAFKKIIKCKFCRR
Experimental: High affinity for the serotonin 5-HT1A receptor for the compounds of this invention was established by testing them in accordance with the standard pharmacological test procedure in which the compound's ability to displace [^3 H] 8-OHDPAT (dipropylaminotetralin) from the 5-HT1A serotonin receptor was determined following the procedure of Hall et al., J. Neurochem. 44 1685 (1985). […] The anxiolytic activity of buspirone is believed to be, at least partially, due to its 5-HT1A receptor affinity [VanderMaelen et al., Eur. J. Pharmacol. 1986, 129 (123-130)].

[2] = target: T1, 5-HT1A serotonin receptor; conditions: buspirone, literature (VanderMaelen et al. 1986); cited from earlier work

IC50 [1] | SMILES | affinity for the 5-HT1A serotonin receptor (in words) [2]
37.1 nM | CN1c2ccccc2[C@@H]2CCN(CCC(C(=O)N3CCCCCC3)c3ccccc3)C[C@H]21 (relative stereo) [Example 3, 1-Azepan-1-yl-4-((trans)-9-methyl-1,3,4,4a,9,9a-hexahydro-2H-pyrido[3,4-b]indol-2-yl)-2-phenyl-butan-1-one] | –
67.4 nM | O=C(C(CCN1CC[C@H]2c3ccccc3N[C@H]2C1)c1ccccc1)N1CCCCCC1 (relative stereo) [Example 4, 1-Azepan-1-yl-4-((cis)-1,3,4,4a,9,9a-hexahydro-2H-pyrido[3,4-b]indol-2-yl)-2-phenyl-butan-1-one] | –
33.3 nM | Cn1c2c(c3ccccc31)CCN(CCC(C(=O)N1CCCCCC1)c1ccccc1)C2 (centres unmarked) [Example 2, 1-Azepan-1-yl-4-(9-methyl-1,3,4,9-tetrahydro-2H-pyrido[3.4-b]-indol-2-yl]-2-phenyl-butan-1-one] | –
– | O=C1CC2(CCCC2)CC(=O)N1CCCCN1CCN(c2ncccn2)CC1 [buspirone] | potent affinity

SMILES | IC50 [1] | affinity for the 5-HT1A serotonin receptor (in words) [2]
O=C(C(CCN1CCc2c([nH]c3ccccc23)C1)c1ccccc1)N1CCCCCC1 (centres unmarked) [Example 1, 1-Azepan-1-yl-2-phenyl-4-(1,3,4,9-tetrahydro-2H-pyrido[3.4-b]indol-2-yl]-butan-1-one] | 30.9 nM | –
